Reference: patent US20240391862A1, “(1,4,5-TRISUBSTITUTED-1H-PYRAZOL-3-YL)OXY-2-ALKOXY ALKYL ACIDS AND THEIR DERIVATIVES, THEIR SALTS AND THEIR USE AS HERBICIDAL AGENTS” (Bayer AKtiengesellschaft, priority 2021, published 2024)

Experiments:
[1] = system: ZEAMX; assay: Post-emergence herbicidal effect and crop plant compatibility, greenhouse pot test; format: in vivo, Zea mays; conditions: one-leaf stage, rated visually after about 3 weeks vs untreated controls; for plant injury at 20 g/ha: read-out: Post-emergence effect at 20 g/ha against ZEAMX in %; for plant injury at 80 g/ha: read-out: Post-emergence effect at 80 g/ha against ZEAMX in %
Summary of the method: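 Greenhouse pot test: weeds and crops sown in sandy loam, sprayed post-emergence at one-leaf stage (2–3 weeks after sowing) with WP or EC formulations plus 0.5% additive at 600 l/ha water, rates 20–320 g/ha. Visual rating about 3 weeks later versus untreated controls (100% = dead, 0% = as control).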

[2] = system: TRZAS; assay: as above; format: in vivo, Triticum aestivum; conditions: 20 g/ha, one-leaf stage, rated visually after about 3 weeks vs untreated controls; for percent crop injury (phytotoxicity) to wheat, post-emergence at 20 g/ha: Triticum aestivum, 504 h, read-out: Post-emergence effect at 20 g/ha against TRZAS in %
From the text: • ALOMY: Alopecurus myosuroides SETVI: Setaria viridis • AVEFA: Avena fatua POLCO: Fallopia convolvulus • AMARE: Amaranthus retroflexus ECHCG: Echinochloa crus-galli • LOLRJ: Lolium rigidum STEME: Stellaria media • VERPE: Veronica persica MATIN: Tripleurospermum inodorum • DIGSA: Digitaria sanguinalis ABUTH: Abutylon threophrasti • TRZAS: Triticum aestivum VIOTR: Viola tricolor • BRSNW: Brassica napus ZEAMX: Zea mays • PHBPU: Ipomoea purpurea GLXMA: Glycine max • ORYSA: Oryza sativa HORMU: Hordeum murinum
Seeds of monocotyledonous and dicotyledonous weeds and crop plants are placed in sandy loam in plastic or organic planting pots, covered with soil and cultivated in a greenhouse under controlled growth conditions. 2 to 3 weeks after sowing, the trial plants are treated at the one-leaf stage. The compounds of the invention, formulated in the form of wettable powders (WP) or as emulsion concentrates (EC), are then sprayed onto the green parts of the plants as aqueous suspension or emulsion with addition of 0.5% additive at a water application rate of 600 l/ha (converted). After the test plants have been kept in the greenhouse under optimum growth conditions for about 3 weeks, the activity of the preparations is rated visually in comparison to untreated controls. For example, 100% activity=the plants have died, 0% activity=like control plants.
Tables 20a to 38c below show the effects/crop compatibilities of selected compounds of the general formula (I) on various harmful plants at an application rate corresponding to 20 to 320 g/ha, which were obtained by the trial procedure specified above.

[3] = system: ABUTH; assay: Post-emergence herbicidal effect, greenhouse pot test; format: in vivo, Abutilon theophrasti; conditions: visual rating about 3 weeks after treatment; for pest or weed control at 320 g/ha / Post-emergence effect against ABUTH: 320 g/ha
Summary of the method: (§1)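 Sandy loam pots, greenhouse. One-leaf stage (2–3 wk after sowing) foliar spray; WP/EC in water + 0.5% additive, 600 l/ha; 20–320 g/ha. Visual score ~3 wk, 0–100% vs untreated.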

[4] = system: ALOMY; assay: as above; format: in vivo, Alopecurus myosuroides; conditions: 320 g/ha, visual rating about 3 weeks after treatment
Summary of the method: as §1

[5] = system: AVEFA; assay: as above; format: in vivo, Avena fatua; conditions: 320 g/ha, visual rating about 3 weeks after treatment; for pest or weed control at 320 g/ha: Avena fatua, 504 h, read-out: Post-emergence effect against AVEFA
Summary of the method: as §1

[6] = system: DIGSA; assay: as above; format: in vivo, Digitaria sanguinalis; conditions: visual rating about 3 weeks after treatment; for pest or weed control at 320 g/ha / Post-emergence effect against DIGSA: 320 g/ha
Summary of the method: as §1

[7] = system: ECHCG; assay: as above; format: in vivo, Echinochloa crus-galli; conditions: for pest or weed control at 80 g/ha / pest or weed control at 320 g/ha: Echinochloa crus-galli, 504 h, read-out: Post-emergence effect against ECHCG in %
Summary of the method: as §1

[8] = system: MATIN; assay: as above; format: in vivo, Tripleurospermum inodorum; conditions: 320 g/ha; for pest or weed control at 320 g/ha: Tripleurospermum inodorum, 504 h, read-out: Post-emergence effect against MATIN in %
Summary of the method: as §1

[9] = system: PHBPU; assay: as above; format: in vivo, Ipomoea purpurea
Summary of the method: as §1

[10] = system: SETVI; assay: as above; format: in vivo, Setaria viridis; conditions: for pest or weed control at 320 g/ha / Post-emergence effect against SETVI in %: 320 g/ha
Summary of the method: as §1

[11] = system: VERPE; assay: as above; format: in vivo, Veronica persica
Summary of the method: as §1

[12] = system: VIOTR; assay: as above; format: in vivo, Viola tricolor; conditions: Viola tricolor, 504 h, read-out: Post-emergence effect against VIOTR in %
Summary of the method: as §1

[13] = system: KCHSC; assay: as above; format: in vivo; conditions: 320 g/ha; for pest or weed control at 320 g/ha: 504 h, read-out: Post-emergence effect against KCHSC in %
Summary of the method: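 Greenhouse plants in sandy loam, sprayed post-emergence at the one-leaf stage (2–3 weeks after sowing) with WP or EC formulations in water plus 0.5% additive at 600 l/ha. Rates 20 to 320 g/ha. Activity rated visually after about 3 weeks against untreated controls (0% like control, 100% dead).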

[14] = system: AMARE; assay: as above; format: in vivo, Amaranthus retroflexus; conditions: 320 g/ha, visual rating about 3 weeks after treatment
Summary of the method: as §1

[15] = system: POLCO; assay: as above; format: in vivo, Fallopia convolvulus
Summary of the method: as §1

[16] = Abutilon theophrasti, 504 h, read-out: Post-emergence effect against ABUTH
[17] = Digitaria sanguinalis, 504 h, read-out: Post-emergence effect against DIGSA
[18] = Ipomoea purpurea, 504 h, 320 g/ha, read-out: Post-emergence effect against PHBPU in %
[19] = Setaria viridis, 504 h, read-out: Post-emergence effect against SETVI in %
[20] = Veronica persica, 504 h, 320 g/ha, read-out: Post-emergence effect against VERPE in %
[21] = Fallopia convolvulus, 504 h, 320 g/ha, read-out: Post-emergence effect against POLCO in %

CCOC(Oc1nn(-c2ccccc2F)c(-c2ccc(F)nc2)c1Br)C(=O)OCCC(=O)OC (single isomer, unassigned) [Example I-59, Methyl 3-{[(2RS)-2-{[4-bromo-1-(2-fluorophenyl)-5-(6-fluoropyridin-3-yl)-1H-pyrazol-3-yl]oxy}-2-ethoxyethanoyl]oxy}propanoate]
80%: pest or weed control at 320 g/ha [5] | pest or weed control at 80 g/ha ([6]; Digitaria sanguinalis, 504 h, 80 g/ha, read-out: Post-emergence effect against DIGSA) | pest or weed control at 320 g/ha [8] | pest or weed control at 80 g/ha ([10]; Setaria viridis, 504 h, 80 g/ha, read-out: Post-emergence effect against SETVI in %) | pest or weed control at 80 g/ha ([11]; Veronica persica, 504 h, 80 g/ha, read-out: Post-emergence effect against VERPE in %) | pest or weed control at 320 g/ha [11, 20] | pest or weed control at 320 g/ha [13]
0%: percent crop injury (phytotoxicity) to wheat, post-emergence at 20 g/ha [2]
90%: pest or weed control at 80 g/ha ([3]; Abutilon theophrasti, 504 h, 80 g/ha, read-out: Post-emergence effect against ABUTH) | pest or weed control at 320 g/ha [3, 16] | pest or weed control at 320 g/ha ([4]; Alopecurus myosuroides, 504 h, read-out: Post-emergence effect against ALOMY) | pest or weed control at 320 g/ha [6, 17] | pest or weed control at 80 g/ha ([7]; 80 g/ha) | pest or weed control at 320 g/ha ([7]; 320 g/ha) | pest or weed control at 80 g/ha ([9]; Ipomoea purpurea, 504 h, 80 g/ha, read-out: Post-emergence effect against PHBPU in %) | pest or weed control at 320 g/ha [9, 18] | pest or weed control at 320 g/ha [10, 19] | pest or weed control at 80 g/ha ([12]; 80 g/ha) | pest or weed control at 320 g/ha [12]
20%: plant injury at 20 g/ha ([1]; Zea mays, 504 h, 20 g/ha)

CCOC(Oc1nn(-c2ccccc2F)c(-c2ccc(F)nc2)c1Br)C(=O)OCCC(=O)OC (single isomer, unassigned) [Example I-64, Methyl 3-{[(2R*)-2-{[4-bromo-1-(2-fluorophenyl)-5-(6-fluoropyridin-3-yl)-1H-pyrazol-3-yl]oxy}-2-ethoxyethanoyl]oxy}propanoate]
20%: plant injury at 20 g/ha ([1]; Zea mays, 504 h, 20 g/ha)
10%: percent crop injury (phytotoxicity) to wheat, post-emergence at 20 g/ha [2]
80%: Post-emergence effect against ABUTH [3] | Post-emergence effect against DIGSA [6] | Post-emergence effect against ECHCG in % ([7]; 80 g/ha) | Post-emergence effect against MATIN in % [8] | Post-emergence effect against PHBPU in % ([9]; 80 g/ha) | Post-emergence effect against VERPE in % ([11]; 80 g/ha) | Post-emergence effect against VERPE in % ([11]; 320 g/ha)
90%: Post-emergence effect against ALOMY [4] | Post-emergence effect against AVEFA [5] | Post-emergence effect against ECHCG in % ([7]; 320 g/ha) | Post-emergence effect against PHBPU in % ([9]; 320 g/ha) | Post-emergence effect against SETVI in % [10] | Post-emergence effect against KCHSC in % [13]

COC(=O)CCOC(=O)C(OC)Oc1nn(-c2ncccc2F)c(-c2ccc(F)nc2)c1C1CC1 (single isomer, unassigned) [Example I-81]
80%: Post-emergence effect against AMARE [14] | Post-emergence effect against DIGSA [6] | Post-emergence effect against PHBPU in % ([9]; 320 g/ha)
0%: Post-emergence effect at 20 g/ha against ZEAMX in % ([1]; 20 g/ha) | Post-emergence effect at 80 g/ha against ZEAMX in % ([1]; 80 g/ha) | Post-emergence effect at 20 g/ha against TRZAS in % [2]
90%: Post-emergence effect against ABUTH [3] | Post-emergence effect against ALOMY [4] | Post-emergence effect against AVEFA [5] | Post-emergence effect against ECHCG in % ([7]; 320 g/ha) | Post-emergence effect against POLCO in % ([15]; 320 g/ha) | Post-emergence effect against SETVI in % [10] | Post-emergence effect against KCHSC in % [13]

COC(Oc1nn(-c2ncccc2F)c(-c2ccc(F)nc2)c1C1CC1)C(=O)O (stereo not shown) [Example I-56]
90%: pest or weed control at 320 g/ha ([7]; 320 g/ha) | pest or weed control at 320 g/ha [12] | pest or weed control at 320 g/ha [13]
20%: Post-emergence effect at 320 g/ha against ZEAMX in % ([1]; 320 g/ha)
80%: pest or weed control at 320 g/ha [3, 16] | pest or weed control at 320 g/ha [5] | pest or weed control at 320 g/ha [6, 17] | pest or weed control at 80 g/ha ([7]; 80 g/ha) | pest or weed control at 320 g/ha [9, 18] | pest or weed control at 320 g/ha [15, 21] | pest or weed control at 320 g/ha [10, 19] | pest or weed control at 320 g/ha [11, 20]
0%: plant injury at 20 g/ha ([1]; Zea mays, 504 h, 20 g/ha) | plant injury at 80 g/ha ([1]; Zea mays, 504 h, 80 g/ha) | percent crop injury (phytotoxicity) to wheat, post-emergence at 20 g/ha [2]

COC(Oc1nn(-c2ncccc2F)c(-c2ccc(F)nc2)c1C(F)(F)F)C(=O)O (stereo not shown) [Example I-57]
80%: pest or weed control at 320 g/ha [5] | pest or weed control at 320 g/ha [9, 18] | pest or weed control at 320 g/ha [15, 21] | pest or weed control at 320 g/ha [12]
90%: pest or weed control at 320 g/ha ([7]; 320 g/ha) | pest or weed control at 320 g/ha [13]
0%: plant injury at 20 g/ha ([1]; Zea mays, 504 h, 20 g/ha) | plant injury at 80 g/ha ([1]; Zea mays, 504 h, 80 g/ha) | plant injury at 320 g/ha ([1]; Zea mays, 504 h, 320 g/ha, read-out: Post-emergence effect at 320 g/ha against ZEAMX in %) | percent crop injury (phytotoxicity) to wheat, post-emergence at 20 g/ha [2]

COC(Oc1nn(-c2ccccc2F)c(-c2ccc(F)nc2)c1C1CC1)C(=O)O (stereo not shown) [Example I-69]
90%: pest or weed control at 320 g/ha [3, 16] | pest or weed control at 320 g/ha ([7]; 320 g/ha) | pest or weed control at 320 g/ha [12]
80%: pest or weed control at 320 g/ha [8] | pest or weed control at 320 g/ha [9, 18] | pest or weed control at 80 g/ha ([15]; Fallopia convolvulus, 504 h, 80 g/ha, read-out: Post-emergence effect against POLCO in %) | pest or weed control at 320 g/ha [15, 21] | pest or weed control at 320 g/ha [11, 20] | pest or weed control at 320 g/ha [13]
0%: plant injury at 20 g/ha ([1]; Zea mays, 504 h, 20 g/ha) | plant injury at 80 g/ha ([1]; Zea mays, 504 h, 80 g/ha) | percent crop injury (phytotoxicity) to wheat, post-emergence at 20 g/ha [2]
